From patent publication US9234885B2 (priority 2011, dated 2016)
“Also recorded” adds a separate entry of the source.

What was measured:
rVSV-GP-EboV [1] = format: cell-based, Ebola virus
EBOV-Zaire 1995 = format: cell-based, Ebola virus
rVSV-GP-EboV [2] = format: cell-based, Ebola virus; remark: listed apart in the source
MARV-Ci67 = format: cell-based, Marburg virus
VSV [3] = format: cell-based, vesicular stomatitis virus
VSV [4] = format: cell-based, vesicular stomatitis virus; remark: listed apart in the source
[5] = test system: human peripheral blood monocyte-derived dendritic cells and umbilical-vein endothelial cells (HUVEC)
[6] = test system: intracellular cholesterol; format: cell-based, grivet monkey

Compound: ammonium chloride [NH4Cl]
- VSV M staining pattern after rVSV-GP-EboV (diffuse = fusion, punctate = block) (rVSV-GP-EboV [1]): discrete punctuate of M staining

Compound: CN(C)CCCN1c2ccccc2CCc2ccccc21 [imipramine]
- infection by authentic EboV, percentage of infected cells by immunostaining (EBOV-Zaire 1995): blocks
- viral yield, authentic EboV (EBOV-Zaire 1995): Stark reductions
- viral infection mediated by EboV GP (rVSV-GP-EboV [2]): potently inhibited
- infection by authentic MarV, percentage of infected cells by immunostaining (MARV-Ci67): blocks
- viral yield, authentic MarV (MARV-Ci67): Stark reductions
- viral infection by VSV (VSV [3]): but not VSV

Compound: CCN(CC)CCO[C@H]1CC[C@@]2(C)C(=CC[C@@H]3[C@@H]2CC[C@]2(C)C(=O)CC[C@@H]32)C1 [U18666A, 3-β-[2-(diethylamino)ethoxy]androst-5-en-17-one]
- VSV M staining pattern after rVSV-GP-EboV (diffuse = fusion, punctate = block) (rVSV-GP-EboV [1]): only punctate M staining
- infection by authentic EboV, percentage of infected cells by immunostaining (EBOV-Zaire 1995): greatly reduced; also recorded: blocks
- viral yield, authentic EboV (EBOV-Zaire 1995): Stark reductions
- VSV M staining pattern after VSV (diffuse = fusion, punctate = block) (VSV [4]): Diffuse M staining
- cell number or morphology [5]: without affecting
- time after addition to cells until viral infection is inhibited (rVSV-GP-EboV [2]): < 10 min
- viral infection mediated by EboV GP (rVSV-GP-EboV [2]): potently inhibited
- infection by authentic MarV, percentage of infected cells by immunostaining (MARV-Ci67): greatly reduced; also recorded: blocks
- viral yield, authentic MarV (MARV-Ci67): Stark reductions
- time until significant intracellular accumulation of cholesterol is observed [6]: > 4 h
- viral infection by VSV (VSV [3]): but not VSV

Compound: bafilomycin A1 [bafA1]
- VSV M staining pattern after rVSV-GP-EboV (diffuse = fusion, punctate = block) (rVSV-GP-EboV [1]): discrete punctuate of M staining
